We go through 3 compounds from patent US20060045855A1, “Oral composition for reducing plaque and microbial infections and whitening teeth” (priority 2004, published 2006).

Data set [1] can be described thus: Time-course of generation of ClO2 after 1:1 mixing of NaClO2 solution and oxidizing agent solution, change in absorption at 360 nm. The note with it: from NaClO2 in the presence of the oxidizing agent. An excerpt: The pH of the resulting composition should be at or below about 7, but above the pKa of chlorous acid. It is known that ClO2 is generated from NaClO2 at pH values at or below about 7 in the absence of an oxidizing agent such as […]. However, the generation is quite slow (on the order of days and months). In the presence of an oxidizing agent such as […] or tannic acid, under the conditions described above, therapeutically effective levels of ClO2 begin to be generated in seconds, as shown below in Tables 1 and 2. Increasing the concentration of the oxidizing agent by weight will cause a more rapid generation of ClO2.

For data set [2] the following is noted: same solution as H2O2; cited from earlier work.
The conditions of data set [3]: standard temperature and pressure; cited from earlier work.

SMILES strings stand for the structures.

`O=C1O[C@H]([C@@H](O)CO)C(O)=C1O` [ascorbic acid]: in data set [1], the “time in which therapeutically effective levels of ClO2 begin to be generated” value was “in seconds”. Consider `O=S(=O)([O-])OOS(=O)(=O)[O-].[Na+].[Na+]` [sodium persulfate], for which the “stability in the presence of H2O2” value in data set [2] is listed as “degrades very quickly”.

As for `O=C(OC[C@H]1O[C@@H](OC(=O)c2cc(O)c(O)c(OC(=O)c3cc(O)c(O)c(O)c3)c2)[C@H](OC(=O)c2cc(O)c(O)c(OC(=O)c3cc(O)c(O)c(O)c3)c2)[C@@H](OC(=O)c2cc(O)c(O)c(OC(=O)c3cc(O)c(O)c(O)c3)c2)[C@@H]1OC(=O)c1cc(O)c(O)c(OC(=O)c2cc(O)c(O)c(O)c2)c1)c1cc(O)c(O)c(OC(=O)c2cc(O)c(O)c(O)c2)c1` [tannic acid], the solubility in water in data set [3] is 1 g/0.35 mL water. Besides, in data set [1], the “time in which therapeutically effective levels of ClO2 begin to be generated” value is given as “in seconds”.
